Measurements from the supplement of paper PMC10307832.

Key:
Test in all cases: relative viability (nuclei count vs DMSO), 5 days (fraction); higher = more cells survive
Pemetrexed + Vorinostat = compound: Nc1nc2[nH]cc(CCc3ccc(C(=O)N[C@@H](CCC(=O)O)C(=O)O)cc3)c2c(=O)[nH]1 [Pemetrexed] + O=C(CCCCCCC(=O)Nc1ccccc1)NO [Vorinostat] (partner 1 µM)
Summary of the method: (§1)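 One day after seeding in 1536-well plates, lung cancer cell lines were dosed by pin tool. Dosing was either single-drug or a fixed anchor-drug dose plus five library-drug doses (not always all listed) in √10 steps. After 5 days, nuclei were stained in one fix-and-stain step and counted on 4× images, and relative viability is the nuclei count of treated wells over that of vehicle wells, given as the median of duplicate plates.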

Idelalisib + Decitabine = compound: CC[C@H](Nc1ncnc2[nH]cnc12)c1nc2cccc(F)c2c(=O)n1-c1ccccc1 [Idelalisib] + Nc1ncn([C@H]2C[C@H](O)[C@@H](CO)O2)c(=O)n1 [Decitabine] (partner 2 µM)
Summary of the method: as §1

Pemetrexed + Alpelisib = compound: Nc1nc2[nH]cc(CCc3ccc(C(=O)N[C@@H](CCC(=O)O)C(=O)O)cc3)c2c(=O)[nH]1 [Pemetrexed] + Cc1nc(NC(=O)N2CCC[C@H]2C(N)=O)sc1-c1ccnc(C(C)(C)C(F)(F)F)c1 [Alpelisib] (partner 2 µM)
Summary of the method: as §1

Pemetrexed + OSI-027 = compound: Nc1nc2[nH]cc(CCc3ccc(C(=O)N[C@@H](CCC(=O)O)C(=O)O)cc3)c2c(=O)[nH]1 [Pemetrexed] + COc1cccc2cc(-c3nc([C@H]4CC[C@H](C(=O)O)CC4)n4ncnc(N)c34)[nH]c12 [OSI-027] (partner 0.5 µM)
Summary of the method: as §1

| Cell Line | relative viability (Pemetrexed + Vorinostat; first compound 0.002 µM) | relative viability (Pemetrexed + Vorinostat; first compound 0.006325 µM) | relative viability (Pemetrexed + Vorinostat; first compound 0.02 µM) | relative viability (Pemetrexed + Vorinostat; first compound 0.06325 µM) | relative viability (Pemetrexed + Vorinostat; first compound 0.2 µM) | relative viability (Idelalisib + Decitabine; first compound 0.04 µM) | relative viability (Idelalisib + Decitabine; first compound 0.1265 µM) | relative viability (Idelalisib + Decitabine; first compound 0.4 µM) | relative viability (Idelalisib + Decitabine; first compound 1.265 µM) | relative viability (Idelalisib + Decitabine; first compound 4 µM) | relative viability (Pemetrexed + Alpelisib; first compound 0.002 µM) | relative viability (Pemetrexed + Alpelisib; first compound 0.006325 µM) | relative viability (Pemetrexed + Alpelisib; first compound 0.02 µM) | relative viability (Pemetrexed + Alpelisib; first compound 0.06325 µM) | relative viability (Pemetrexed + Alpelisib; first compound 0.2 µM) | relative viability (Pemetrexed + OSI-027; first compound 0.002 µM) | relative viability (Pemetrexed + OSI-027; first compound 0.006325 µM) | relative viability (Pemetrexed + OSI-027; first compound 0.02 µM) | relative viability (Pemetrexed + OSI-027; first compound 0.06325 µM) | relative viability (Pemetrexed + OSI-027; first compound 0.2 µM) |
| --- | --- | --- | --- | --- | --- | --- | --- | --- | --- | --- | --- | --- | --- | --- | --- | --- | --- | --- | --- | --- |
| NCI-H2023 | 0.306 | 0.595 | 0.676 | 0.372 | 0.15 | 0.25 | 0.236 | 0.241 | 0.197 | 0.208 | 0.573 | 0.521 | 0.558 | 0.524 | 0.289 | 0.248 | 0.38 | 0.464 | 0.295 | 0.166 |
| NCI-H2085 | 0.763 | 0.775 | 0.897 | 0.817 | 0.806 | 0.528 | 0.57 | 0.622 | 0.596 | 0.61 | 0.91 | 0.952 | 1.07 | 0.951 | 0.952 | 0.653 | 0.73 | 0.769 | 0.85 | 0.848 |
| NCI-H2087 | 0.662 | 0.751 | 1.06 | 0.591 | 0.757 | 0.357 | 0.337 | 0.217 | 0.244 | 0.269 | 0.939 | 1.02 | 0.926 | 1.01 | 0.603 | 0.55 | 0.512 | 0.538 | 0.589 | 0.524 |
| NCI-H2126 | 0.638 | 0.719 | 0.777 | 0.798 | 0.688 | 0.545 | 0.56 | 0.532 | 0.548 | 0.524 | 0.737 | 0.758 | 0.75 | 0.703 | 0.742 | 0.601 | 0.805 | 0.808 | 0.796 | 0.691 |
| NCI-H2170 | 0.564 | 0.813 | 0.899 | 0.823 | 0.45 | 0.507 | 0.471 | 0.505 | 0.438 | 0.417 | 0.723 | 0.831 | 0.905 | 0.869 | 0.824 | 0.656 | 0.698 | 0.692 | 0.708 | 0.744 |
| NCI-H2347 | 0.49 | 0.487 | 0.609 | 0.468 | 0.436 | 0.612 | 0.589 | 0.752 | 0.621 | 0.512 | 0.858 | 0.893 | 1.07 | 0.869 | 0.633 | 0.296 | 0.292 | 0.49 | 0.406 | 0.339 |
| NCI-H2405 | 0.929 | 1.2 | 1.07 | 1.02 | 0.96 | 0.751 | 0.752 | 0.644 | 0.838 | 0.691 | 0.896 | 0.714 | 0.868 | 0.712 | 0.736 | 0.628 | 0.597 | 0.67 | 0.641 | 0.663 |
| NCI-H3122 | 1.12 | 0.893 | 0.96 | 0.755 | 0.454 | 0.461 | 0.418 | 0.358 | 0.444 | 0.369 | 0.94 | 0.833 | 0.734 | 0.772 | 0.521 | 0.857 | 0.879 | 0.923 | 0.524 | 0.221 |
| PC-3 [JPC-3] | 0.628 | 1.15 | 0.837 | 0.922 | 0.782 | 0.917 | 0.89 | 0.763 | 0.819 | 0.772 | 0.948 | 1.04 | 1.04 | 1.03 | 0.972 | 0.59 | 0.786 | 0.715 | 0.916 | 0.765 |
| PC-14 | 0.656 | 0.636 | 0.775 | 0.226 | 0.123 | 0.295 | 0.194 | 0.215 | 0.166 | 0.209 | 0.897 | 0.958 | 0.931 | 0.535 | 0.158 | 0.681 | 0.769 | 1.16 | 0.197 | 0.102 |
| RERF-LC-KJ | 0.621 | 0.581 | 0.762 | 0.597 | 0.5 | 0.757 | 0.739 | 0.692 | 0.573 | 0.521 | 1.12 | 0.774 | 0.84 | 0.868 | 0.538 | 0.528 | 0.508 | 0.666 | 0.546 | 0.451 |
| SK-LU-1 | 0.684 | 0.782 | 0.887 | 0.763 | 0.795 | 0.645 | 0.605 | 0.581 | 0.706 | 0.618 | 0.874 | 1.02 | 1.04 | 0.931 | 1.02 | 0.312 | 0.319 | 0.398 | 0.352 | 0.34 |
| SK-MES-1 | 1.07 | 0.994 | 1.18 | 1.11 | 0.993 | 0.399 | 0.414 | 0.36 | 0.248 | 0.257 | 0.92 | 0.732 | 1.04 | 0.864 | 0.8 | 0.72 | 0.611 | 0.615 | 0.572 | 0.554 |
| SW 1573 | 0.697 | 0.541 | 1.04 | 0.747 | 0.653 | 0.462 | 0.6 | 0.537 | 0.261 | 0.38 | 0.826 | 0.741 | 0.723 | 0.733 | 0.76 | 0.602 | 0.465 | 0.718 | 0.646 | 0.61 |
